Measured values as given in US20060110450A1, “Bilayer tablet of telmisartan and amlodipine” (Boehringer Ingelheim International GmbH, priority 2004, published 2006).

How the values were obtained:
[1] = Stability of amlodipine in contact with the basic telmisartan formulation; type: physicochemical; details: direct contact with excipients to be used in a telmisartan formulation (basic components, e.g. sodium hydroxide or meglumine)
Excerpt: There are various types of fixed dose combination dosage forms conceivable but it cannot be predicted which of these dosage forms best combines product stability, pharmacological efficacy, and reliable manufacture. Generally, combinations of two active pharmaceutical ingredients could be formulated as oral solid or oral liquid dosage forms such as tablets, capsules, coated or sugar-coated tablets, granules, oral solutions, emulsions or suspensions, syrups, and lozenges. In view of experiences with liquid dosage forms of telmisartan, oral liquid dosage forms are not considered a preferred embodiment according to the present invention. An instant release oral solid dosage form containing two drugs could be prepared by either making a powder mixture or a co-granulate of the two active ingredients with the necessary excipients. However, for a combination of telmisartan and amlodipine, this approach turns out not to result in a dosage form with sufficient product stability. […] The ester bonds in the amlodipine molecule appear to be subject to hydrolysis when exposed to an alkaline milieu. […]

[2] = physiological pH range of the gastrointestinal tract between pH 1 to 7; cited from earlier work

Molecule	stability of amlodipine [1]	solubility in aqueous systems [2]
3-ethyl-5-methyl-2-(2-aminoethoxymethyl)-4-(2-chlorophenyl)-1,4-dihydro-6-methyl-3,5-pyridinedicarboxylate [amlodipine]	not stable enough	
CCCc1nc2c(C)cc(-c3nc4ccccc4n3C)cc2n1Cc1ccc(-c2ccccc2C(=O)O)cc1 [Telmisartan, 4′-[2-n-propyl-4-methyl-6-(1-methylbenzimidazol-2-yl)benzimidazol-1-ylmethyl]biphenyl-2-carboxylic acid]		very poor solubility
